Test results published in patent US20050043378A1, “LTA4H modulators” (priority 2003, published 2005).
Where a name gives a salt, the structure may show the parent alone.

Target: T1, recombinant human LTA4 hydrolase (rhLTA4H) (Homo sapiens, UniProt P09960)
T1 construct: made in house; host or cells: Spodoptera frugiperda (Sf-9) cells, baculovirus (pFastBac1)
T1 sequence (P09960 1-611): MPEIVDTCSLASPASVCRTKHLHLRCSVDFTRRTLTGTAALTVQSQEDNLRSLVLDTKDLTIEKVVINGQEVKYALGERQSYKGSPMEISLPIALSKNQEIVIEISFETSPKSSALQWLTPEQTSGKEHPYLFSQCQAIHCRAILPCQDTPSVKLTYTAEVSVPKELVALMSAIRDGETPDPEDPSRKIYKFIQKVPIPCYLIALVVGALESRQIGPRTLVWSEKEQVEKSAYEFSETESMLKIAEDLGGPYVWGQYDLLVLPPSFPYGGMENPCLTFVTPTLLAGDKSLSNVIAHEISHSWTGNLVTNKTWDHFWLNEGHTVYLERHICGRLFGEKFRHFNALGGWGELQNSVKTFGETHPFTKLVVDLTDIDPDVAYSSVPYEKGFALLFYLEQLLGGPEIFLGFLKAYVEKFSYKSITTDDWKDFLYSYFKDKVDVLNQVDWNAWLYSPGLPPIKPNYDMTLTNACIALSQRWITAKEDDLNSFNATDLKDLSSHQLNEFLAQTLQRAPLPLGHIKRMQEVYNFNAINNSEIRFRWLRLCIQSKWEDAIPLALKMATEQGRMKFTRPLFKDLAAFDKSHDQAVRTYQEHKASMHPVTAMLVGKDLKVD
Test: Recombinant human LTA4 hydrolase assay for LTA4 hydrolase inhibitor activity;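 also: enzyme expressed in Sf-9 insect cells, compound preincubated 10 min with enzyme, 10 min reaction at room temperature, uninhibited reaction as positive control, enzyme-free blank as negative control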
Format: biochemical
Conditions: LTA4 substrate, LTB4 by immunoassay, average of one to three determinations

Question: `CCOC(=O)C1CCN(CCOc2ccc(Oc3nc4ccccc4[nH]3)cc2)CC1` [Example 485, 1-{2-[4-(1H-Benzoimidazol-2-yloxy)-phenoxy]-ethyl}-piperidine-4-carboxylic acid ethyl ester] was tested. Which IC50 did it give?
Answer: The IC50 was 39 nM.

Question: Which IC50 does the source give for `CN(C)CCCOc1ccc(Oc2nc3ccccc3o2)cc1` [Example 45, {3-[4-(Benzooxazol-2-yloxy)-phenoxy]-propyl}-dimethyl-amine] here?
Answer: Its IC50 is 15 nM.

Question: How did the IC50 turn out when `O=C(O)CN1CCN(Cc2ccc(Oc3nc4ccccc4s3)cc2)CC1` [Example 366, {4-[4-(Benzothiazol-2-yloxy)-benzyl]-piperazin-1-yl}-acetic acid] was run?
Answer: Its IC50 is 39 nM.

Question: For `O=C(O)CN1CCN(CCOc2ccc(Oc3nc4ccccc4s3)cc2)CC1` [Example 163, (4-{2-[4-(Benzothiazol-2-yloxy)-phenoxy]-ethyl}-piperazin-1-yl)-acetic acid], which IC50 is on record?
Answer: Its IC50 is 9 nM.

Question: With `CC(C)(C)OC(=O)N1CCC(c2nnnn2CCOc2ccc(Oc3nc4ccccc4s3)cc2)CC1` [Example 176, 4-(1-{2-[4-(Benzothiazol-2-yloxy)-phenoxy]-ethyl}-1H-tetrazol-5-yl)-piperidine-1-carboxylic acid tert-butyl ester] as the molecule, how does the IC50 read?
Answer: Its IC50 is 12 nM.

Question: With `c1ccc2sc(Oc3ccc(CCN(CCCc4nn[nH]n4)C4CC4)cc3)nc2c1` [Example 389, {2-[4-(Benzothiazol-2-yloxy)-phenyl]-ethyl}-cyclopropyl-[3-(2H-tetrazol-5-yl)-propyl]-amine] as the molecule, how does the IC50 read?
Answer: The IC50 was 2 nM.

Question: Which IC50 does the source give for `O=S(=O)(c1ccc(Cl)cc1)N(C1CC1)C1CCN(CCOc2ccc(Oc3nc4ccccc4s3)cc2)CC1` [Example 168, N-(1-{2-[4-(Benzothiazol-2-yloxy)-phenoxy]-ethyl}-piperidin-4-yl)-4-chloro-N-cyclopropyl-benzene sulfonamide] here?
Answer: Its IC50 is 27 nM.

Question: For `O=C(O)C1CC1CN(CCc1ccc(Oc2nc3ccccc3s2)cc1)C1CC1` (stereo not drawn) [Example 211, 2-[({2-[4-(Benzothiazol-2-yloxy)-phenyl]-ethyl}-cyclopropyl-amino)-methyl]-cyclopropanecarboxylic acid], which IC50 is on record?
Answer: Its IC50 is 9 nM.

Question: For `CCCN(CCc1ccc(Oc2nc3ccccc3o2)cc1)CC1CC1` [Example 92, {2-[4-(Benzooxazol-2-yloxy)-phenyl]-ethyl}-cyclopropylmethyl-propyl-amine], which IC50 is on record?
Answer: The IC50 was 1 nM.

Question: With `O=C(CN1CCN(CCOc2ccc(Oc3nc4ccccc4s3)cc2)CC1)N1CCCC1` [Example 153, 2-(4-{2-[4-(Benzothiazol-2-yloxy)-phenoxy]-ethyl}-piperazin-1-yl)-1-pyrrolidin-1-yl-ethanone] as the molecule, how does the IC50 read?
Answer: The IC50 was 8 nM.

Question: For `CCN(CCc1ccc(Oc2nc3ccccc3[nH]2)cc1)C1CCCCC1` [Example 123, {2-[4-(1H-Benzoimidazol-2-yloxy)-phenyl]-ethyl}-cyclohexyl-ethyl-amine], which IC50 is on record?
Answer: The IC50 was 4 nM.

Question: `c1ccc2sc(Oc3ccc(CCN4CCC(c5nnn[nH]5)CC4)cc3)nc2c1` [Example 262, 2-(4-{2-[4-(1H-Tetrazol-5-yl)-piperidin-1-yl]-ethyl}-phenoxy)-benzothiazole] was tested. Which IC50 did it give?
Answer: Its IC50 is 4 nM.

Question: For `NC(=O)CCN(CCc1ccc(Oc2nc3ccccc3s2)cc1)C1CC1` [Example 214, 3-({2-[4-(Benzothiazol-2-yloxy)-phenyl]-ethyl}-cyclopropyl-amino)-propionamide], which IC50 is on record?
Answer: Its IC50 is 18 nM.

Question: For `c1ccc2sc(Oc3ccc(OCCn4cnnn4)cc3)nc2c1` [Example 224, 2-[4-(2-Tetrazol-1-yl-ethoxy)-phenoxy]-benzothiazole], which IC50 is on record?
Answer: The IC50 was 14 nM.

Question: How did the IC50 turn out when `NC(=O)C1CCN(CCOc2ccc(Cc3nc4ccccc4s3)cc2)CC1` [Example 147, 1-[2-(4-Benzothiazol-2-ylmethyl-phenoxy)-ethyl]-piperidine-4-carboxylic acid amide] was run?
Answer: Its IC50 is 33 nM.

Question: For `OC1CCN(CCCc2ccc(Oc3nc4ccccc4o3)cc2)CC1` [Example 36, 1-{3-[4-(Benzooxazol-2-yloxy)-phenyl]-propyl}-piperidin-4-ol], which IC50 is on record?
Answer: Its IC50 is 14 nM.

Question: For `O=C(O)[C@@H]1CCCC[C@H]1NCCc1ccc(Oc2nc3ccccc3s2)cc1` [Example 225, (1 R,2R)-2-{2-[4-(Benzothiazol-2-yloxy)-phenyl]-ethylamino}-cyclohexanecarboxylic acid], which IC50 is on record?
Answer: Its IC50 is 25 nM.

Question: With `c1ccc(Cn2nnnc2C2CCN(CCOc3ccc(Oc4nc5ccccc5s4)cc3)CC2)cc1` [Example 143, 2-(4-{2-[4-(1-Benzyl-1H-tetrazol-5-yl)-piperidin-1-yl]-ethoxy}-phenoxy)-benzothiazole] as the molecule, how does the IC50 read?
Answer: Its IC50 is 64 nM.

Question: For `OCC1CCCN(CCOc2ccc(Oc3nc4ccccc4s3)cc2)C1` (stereo not drawn) [Example 265, (1-{2-[4-(Benzothiazol-2-yloxy)-phenoxy]-ethyl}-piperidin-3-yl)-methanol], which IC50 is on record?
Answer: Its IC50 is 112 nM.

Question: `c1ccc2sc(Oc3ccc(CCN4CCN(CCN5CCOCC5)CC4)cc3)nc2c1` [Example 146, 2-(4-{2-[4-(2-Morpholin-4-yl-ethyl)-piperazin-1-yl]-ethyl}-phenoxy)-benzothiazole] was tested. Which IC50 did it give?
Answer: Its IC50 is 43 nM.

Question: For `O=C(C1CCN(CCOc2ccc(Oc3nc4ccccc4s3)cc2)CC1)N1CCN(CCO)CC1` [Example 195, (1-{2-[4-(Benzothiazol-2-yloxy)-phenoxy]-ethyl}-piperidin-4-yl)-[4-(2-hydroxy-ethyl)-piperazin-1-yl]-methanone], which IC50 is on record?
Answer: The IC50 was 58 nM.

Question: For `OC(COc1ccc(Oc2nc3ccccc3o2)cc1)CN1CCCC1` (stereo not drawn) [Example 135, 1-[4-(Benzooxazol-2-yloxy)-phenoxy]-3-pyrrolidin-1-yl-propan-2-ol], which IC50 is on record?
Answer: The IC50 was 92 nM.

Question: With `c1ccc2sc(Oc3ccc(OCCN4CCC(N5CCCCC5)CC4)cc3)nc2c1` [Example 80, 1′-{2-[4-(Benzothiazol-2-yloxy)-phenoxy]-ethyl}-[1,4′]bipiperidine] as the molecule, how does the IC50 read?
Answer: The IC50 was 23 nM.

Question: For `O=C1CCCN1C1CCN(CCOc2ccc(Oc3nc4ccccc4[nH]3)cc2)CC1` [Example 231, 1-(1-{2-[4-(1H-Benzoimidazol-2-yloxy)-phenoxy]-ethyl}-piperidin-4-yl)-pyrrolidin-2-one], which IC50 is on record?
Answer: The IC50 was 18 nM.

Question: `c1ccc2[nH]c(Oc3ccc(CCN4CCCCC4)cc3)nc2c1` [Example 230, 2-[4-(2-Piperidin-1-yl-ethyl)-phenoxy]-1H-benzoimidazole] was tested. Which IC50 did it give?
Answer: The IC50 was 36 nM.

Question: For `O=C(O)CCN(CCc1ccc(Oc2nc3ccccc3s2)cc1)Cc1ccccc1` [Example 192, 3-({2-[4-(Benzothiazol-2-yloxy)-phenyl]-ethyl}-benzyl-amino)-propionic acid], which IC50 is on record?
Answer: The IC50 was 3 nM.

Question: How did the IC50 turn out when `O=C(O)[C@@H]1CCCN(CCc2ccc(Oc3nc4ccccc4s3)cc2)C1` [Example 183, (R)-1-{2-[4-(Benzothiazol-2-yloxy)-phenyl]-ethyl}-piperidine-3-carboxylic acid] was run?
Answer: The IC50 was 18 nM.

Question: How did the IC50 turn out when `CN(C1CCN(Cc2ccc(Oc3nc4ccccc4s3)cc2)CC1)S(C)(=O)=O` [Example 255, N-{1-[4-(Benzothiazol-2-yloxy)-benzyl]-piperidin-4-yl}-N-methyl-methanesulfonamide] was run?
Answer: The IC50 was 1 nM.

Question: How did the IC50 turn out when `Oc1ccc(N2CCN(CCOc3ccc(Oc4nc5ccccc5s4)cc3)CC2)cc1` [Example 167, 4-(4-{2-[4-(Benzothiazol-2-yloxy)-phenoxy]-ethyl}-piperazin-1-yl)-phenol] was run?
Answer: Its IC50 is 37 nM.

Question: How did the IC50 turn out when `O=C(O)CCC1CCN(CCc2ccc(Oc3nc4ccccc4s3)cc2)CC1` [Example 202, 3-(1-{2-[4-(Benzothiazol-2-yloxy)-phenyl]-ethyl}-piperidin-4-yl)-propionic acid] was run?
Answer: Its IC50 is 4 nM.

Question: How did the IC50 turn out when `NC1CCC1C(=O)NCC1CCN(Cc2ccc(Oc3nc4ccccc4s3)cc2)CC1` (stereo not drawn) [Example 285, 2-Amino-cyclobutanecarboxylic acid {1-[4-(benzothiazol-2-yloxy)-benzyl]-piperidin-4-ylmethyl}-amide dihydrochloride] was run?
Answer: The IC50 was 76 nM.

Question: Which IC50 does the source give for `OC1(c2ccccc2)CCN(CCOc2ccc(Oc3nc4ccccc4[nH]3)cc2)CC1` [Example 37, 1-{2-[4-(1H-Benzoimidazol-2-yloxy)-phenoxy]-ethyl}-4-phenyl-piperidin-4-ol] here?
Answer: Its IC50 is 10 nM.

Question: With `O=C(O)CC1CCCN(CCc2ccc(Oc3nc4ccccc4s3)cc2)C1` (stereo not drawn) [Example 157, (1-{2-[4-(Benzothiazol-2-yloxy)-phenyl]-ethyl}-piperidin-3-yl)-acetic acid] as the molecule, how does the IC50 read?
Answer: The IC50 was 1 nM.

Question: `O=C(Cc1ccccc1)NC1CCN(CCOc2ccc(Oc3nc4ccccc4o3)cc2)CC1` [Example 78, N-(1-{2-[4-(Benzooxazol-2-yloxy)-phenoxy]-ethyl}-piperidin-4-yl)-2-phenyl-acetamide] was tested. Which IC50 did it give?
Answer: The IC50 was 3 nM.

Question: `CCN(CCO)Cc1ccc(Oc2nc3ccccc3s2)cc1` [Example 287, 2-{[4-(Benzothiazol-2-yloxy)-benzyl]-ethyl-amino}-ethanol] was tested. Which IC50 did it give?
Answer: The IC50 was 28 nM.

Question: For `NC(=O)C1CCCN(CCc2ccc(Oc3nc4ccccc4s3)cc2)C1` (stereo not drawn) [Example 31, 1-{2-[4-(Benzothiazol-2-yloxy)-phenyl]-ethyl}-piperidine-3-carboxylic acid amide], which IC50 is on record?
Answer: The IC50 was 17 nM.

Question: How did the IC50 turn out when `c1ccc2oc(Oc3ccc(OCCN4CCC4)cc3)nc2c1` [Example 77, 2-[4-(2-Azetidin-1-yl-ethoxy)-phenoxy]-benzooxazole] was run?
Answer: The IC50 was 10 nM.

Question: Which IC50 does the source give for `OC1(c2ccccc2)CCN(Cc2ccc(Oc3nc4ccccc4s3)cc2)CC1` [Example 358, 1-[4-(Benzothiazol-2-yloxy)-benzyl]-4-phenyl-piperidin-4-ol] here?
Answer: Its IC50 is 11 nM.

Question: Which IC50 does the source give for `OC1(c2ccc(Cl)cc2)CCN(CCOc2ccc(Oc3nc4ccccc4o3)cc2)CC1` [Example 59, 1-{2-[4-(Benzooxazol-2-yloxy)-phenoxy]-ethyl}-4-(4-chloro-phenyl)-piperidin-4-ol] here?
Answer: Its IC50 is 5 nM.
